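Cells were grown in 96-well plates and exposed to each compound for 48 hours at five concentrations; endpoints were interpolated linearly between bracketing concentrations, or set to the highest concentration if not reached. GI50: concentration for 50% inhibition of growth.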 Calls of active or inactive are those of the source. Rule as the data show it: active = GI50 up to about 1.1 µM and inactive = higher.
Assays:
Test in all cases: inhibition of tumour cell growth, NCI panel, 48 h
[1] = test system: SNB-19
[2] = test system: M19-MEL
[3] = test system: SF-268
[4] = test system: EKVX
[5] = test system: KM-20L2
[6] = test system: OVCAR-4
[7] = test system: SW-620
[8] = test system: UACC-257
[9] = test system: Malme-3M
[10] = test system: HOP-18
[11] = test system: SF-295
[12] = test system: UO-31
[13] = test system: A549
[14] = test system: SK-MEL-2
[15] = test system: CCRF-CEM
[16] = test system: DMS-273
[17] = test system: M14
[18] = test system: DMS-114
[19] = test system: A498
[20] = test system: HCT-116
[21] = test system: SF-539
[22] = test system: HL-60
[23] = test system: LOX IMVI
[24] = test system: OVCAR-5
[25] = test system: SK-MEL-28
[26] = test system: OVCAR-8
[27] = test system: UACC-62
[28] = test system: U-251
[29] = test system: COLO 205
[30] = test system: KM12
[31] = test system: SK-MEL-5
[32] = test system: OVCAR-3
[33] = test system: SN12C
[34] = test system: HCT-15
[35] = test system: HOP-92
[36] = test system: TK-10
[37] = test system: SK-OV-3
[38] = test system: HT-29
[39] = test system: MOLT-4
[40] = test system: NCI-H23
[41] = test system: ACHN
[42] = test system: LXFL 529
[43] = test system: SR
[44] = test system: 786-0
[45] = test system: K562
[46] = test system: HCC 2998
[47] = test system: HOP-62
[48] = test system: SNB-75
[49] = test system: CAKI-1
[50] = test system: SNB-78
[51] = test system: IGROV-1
[52] = test system: RPMI-8226
[53] = test system: NCI-H460
[54] = test system: RXF 393
[55] = test system: NCI-H522

With `Cc1cc2c([nH]c3ccccc32)c2c1OC(C)(C)C1C3CC(C)(C)Oc4c(C)cc5c6ccccc6n(c5c43)C21` (stereo not given) the GI50 [1] was > 100 µM (inactive), the GI50 [2] was > 100 µM (inactive) and the GI50 [3] was > 100 µM (inactive). The GI50 [4] was > 100 µM (inactive), the GI50 [5] was > 100 µM (inactive) and the GI50 [6] was > 100 µM (inactive). The GI50 [7] was > 100 µM (inactive), the GI50 [8] was > 100 µM (inactive) and the GI50 [9] was > 100 µM (inactive). For the same compound, the GI50 [10] was > 100 µM (inactive), the GI50 [11] was > 100 µM (inactive) and the GI50 [12] was > 100 µM (inactive). For the same compound, the GI50 [13] was > 100 µM (inactive), the GI50 [14] was > 100 µM (inactive) and the GI50 [15] was > 100 µM (inactive). The GI50 [16] was > 100 µM (inactive), the GI50 [17] was > 100 µM (inactive) and the GI50 [18] was > 100 µM (inactive). The GI50 [19] was > 100 µM (inactive), the GI50 [20] was > 100 µM (inactive) and the GI50 [21] was > 100 µM (inactive). For the same compound, the GI50 [22] was > 100 µM (inactive), the GI50 [23] was > 100 µM (inactive) and the GI50 [24] was > 100 µM (inactive). For the same compound, the GI50 [25] was > 100 µM (inactive), the GI50 [26] was > 100 µM (inactive) and the GI50 [27] was > 100 µM (inactive). The GI50 [28] was > 100 µM (inactive), the GI50 [29] was > 100 µM (inactive) and the GI50 [30] was > 100 µM (inactive). For the same compound, the GI50 [31] was > 100 µM (inactive), the GI50 [32] was > 100 µM (inactive) and the GI50 [33] was > 100 µM (inactive). The GI50 [34] was > 100 µM, the GI50 [35] was > 100 µM (inactive) and the GI50 [36] was > 100 µM (inactive). For the same compound, the GI50 [37] was > 100 µM (inactive), the GI50 [38] was > 100 µM (inactive) and the GI50 [39] was > 100 µM (inactive). The GI50 [40] was > 100 µM (inactive), the GI50 [41] was > 100 µM (inactive) and the GI50 [42] was > 100 µM (inactive). The GI50 [43] was > 100 µM (inactive), the GI50 [44] was > 100 µM (inactive) and the GI50 [45] was > 100 µM (inactive). The GI50 [46] was > 100 µM (inactive), the GI50 [47] was > 100 µM (inactive) and the GI50 [48] was > 100 µM (inactive). The GI50 [49] was > 100 µM (inactive), the GI50 [50] was > 100 µM (inactive) and the GI50 [51] was > 100 µM (inactive). For the same compound, the GI50 [52] was > 100 µM (inactive), the GI50 [53] was 52.7 µM (inactive) and the GI50 [54] was > 100 µM (inactive). For the same compound, the GI50 [55] was > 100 µM (inactive).

From ChEMBL document CHEMBL1201862, “PubChem BioAssay data set” (2004)
